Results published in patent publication US7888527B2 (University of Virginia Patent Foundation, priority 2004, dated 2011).

Experiments:
[1] = biological target: T1, human S1P1 receptor (Homo sapiens, UniProt P21453); test: [γ-35S]GTP binding assay, HEK293T membranes (agonism and Schild antagonism); type: biochemical; parameters: expressed in transfected cells; host or cells: HEK293T, transient transfection; membranes; key to Schild analysis flag on pKb S1P1: *: Based on Schild analysis, the antagonism observed was not competitive; conditions: for EC50: -log molar concentration giving 50% of maximal [γ-35S]GTP binding, ± S.E.M., read-out: pEC50 S1P1 (converted); for Kb: read-out: pKb S1P1 (converted); for Agonist efficacy class S1P1: relative to S1P Emax
T1 sequence (P21453 whole entry): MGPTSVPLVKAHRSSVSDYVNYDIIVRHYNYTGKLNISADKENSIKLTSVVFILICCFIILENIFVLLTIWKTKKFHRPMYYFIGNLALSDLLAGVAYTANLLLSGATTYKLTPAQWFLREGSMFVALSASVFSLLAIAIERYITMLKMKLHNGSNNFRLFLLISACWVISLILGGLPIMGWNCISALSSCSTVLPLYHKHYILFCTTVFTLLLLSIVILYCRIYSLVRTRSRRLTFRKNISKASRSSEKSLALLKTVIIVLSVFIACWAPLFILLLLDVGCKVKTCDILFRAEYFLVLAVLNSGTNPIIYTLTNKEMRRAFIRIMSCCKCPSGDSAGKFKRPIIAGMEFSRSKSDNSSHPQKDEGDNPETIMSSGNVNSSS
Source text: (§1) The appropriate receptor plasmid DNA (encoding human S1P1, human S1P2, human S1P3, human S1P4, human S1P5, human LPA1, human LPA2 or human LPA3 receptors) is mixed with equal amounts of expression plasmids encoding human Gi2α (for S1P3, a mutated (C352F) rat Gi2α is used), cow β1, and cow γ2 proteins, and these DNAs are used to transfect monolayers of HEK293T cells (where ‘T’ indicates expression of the SV-40 virus large T antigen) using the calcium phosphate precipitate method (7). After about 60 hours, cells are harvested, membranes prepared, aliquoted, and stored at −70° C. until use (8).
(§2) The [γ-^35S]GTP binding assay is performed as described previously (8). Membranes containing 1-5 μg of protein are incubated in 0.1 ml of binding buffer (in mM: HEPES/50, NaCl/100, MgCl2/10, pH 7.5) containing 5 μg of saponin, 10 μM GDP, 0.1 nM [γ-^35S]GTP (1200 Ci/mmol), and indicated lipid(s) for 30 min at 30° C. and collected using a Brandel Cell Harvester (Gaithersburg, Md.). Samples are then analyzed for bound radionuclide.
(§3) Briefly, nonlinear analysis of the best-fit line generated by plotting the negative log of the EC50 values obtained from agonist dose-response curves, in the absence and presence of varying concentrations of antagonist, was plotted against the concentration of antagonist to give the Kb value.
(§4) Statistical Analysis. The EC50 and IC50 values for all dose response curves were determined by nonlinear regression analysis of all data using the Graphpad Prism© program. The error associated with the data collected is reported as the standard error of the mean (S.E.M).

[2] = biological target: T2, human S1P3 receptor (Homo sapiens, UniProt Q99500); test: Intracellular calcium mobilization, T24 cells transfected stably with human S1P3 receptor; type: cell-based; parameters: expressed in transfected cells; conditions: T24-S1P3 cells versus wild-type T24 cells
T2 sequence (Q99500 whole entry): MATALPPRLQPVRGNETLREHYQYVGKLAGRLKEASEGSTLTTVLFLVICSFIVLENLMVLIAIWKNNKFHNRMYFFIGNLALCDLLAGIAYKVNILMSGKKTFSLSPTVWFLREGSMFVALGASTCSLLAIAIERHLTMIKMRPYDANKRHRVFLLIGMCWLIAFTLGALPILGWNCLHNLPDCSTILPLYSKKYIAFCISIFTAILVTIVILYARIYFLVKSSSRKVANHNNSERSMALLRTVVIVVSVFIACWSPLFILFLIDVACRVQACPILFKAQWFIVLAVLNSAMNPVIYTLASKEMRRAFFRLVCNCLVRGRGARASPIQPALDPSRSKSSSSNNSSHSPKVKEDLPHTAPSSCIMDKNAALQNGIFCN
Description: (§5) […] monolayers are co-transfected with the human S1P1, S1P2, S1P3 receptor encoding DNAs and the pIRESpuro2 plasmid DNA (Clontech, San Jose, Calif.,) using either Lipofectamine 2000 (Invitrogen, Carlsbad, Calif.) or FuGENE 6 (Roche Applied Science, Indianapolis, Ind.). Clonal populations expressing the puromycin acetyltransferase gene are selected by addition of puromycin (Sigma-Aldrich, St. Louis, Mo.) to the culture media. T24 cells are grown in monolayers at 37° C. in a 5% CO2/95% air atmosphere in growth media consisting of: 95% DMEM/F-12 medium and 10% charcoal/dextran stripped FBS.
A FlexStation™ fluorimeter (Molecular Devices, Menlo Park, Calif.) was used to measure intracellular calcium in native T24 cells and T24 cells transfected stably with either human S1P2 or human S1P3 receptor DNA. Cells were seeded (˜50,000 cells/well) in 96-well, clear bottom black microplates (Corning Costar Corp.) and left overnight at 37° C. The cells were dye-loaded with 4 μM Fluo-4AM ester in a loading buffer (Hank's Balanced Salt Solution, […], containing 20 mM HEPES, 0.1% fatty acid free BSA, and 2.5 mM probenecid) for 30 minutes at 37° C. After washing cell monolayers three times with phosphate buffered saline, loading buffer was added and the cells exposed to sets of compounds for 3 minutes at 25° C. in the FlexStation™. In all cases, each concentration of every compound was tested in at least triplicate. […] The cells were washed with phosphate buffered saline and exposed to compounds immediately, as described above.
as §3

[3] = biological target: T3, human S1P4 receptor (Homo sapiens, UniProt O95977); test: [γ-35S]GTP binding assay, HEK293T membranes; type: biochemical; conditions: -log molar concentration giving 50% of maximal [γ-35S]GTP binding; ± S.E.M.; read-out: pEC50 S1P4 (converted)
T3 construct: expressed in transfected cells; host or cells: HEK293T, transient transfection; membranes
T3 sequence (O95977 1-384): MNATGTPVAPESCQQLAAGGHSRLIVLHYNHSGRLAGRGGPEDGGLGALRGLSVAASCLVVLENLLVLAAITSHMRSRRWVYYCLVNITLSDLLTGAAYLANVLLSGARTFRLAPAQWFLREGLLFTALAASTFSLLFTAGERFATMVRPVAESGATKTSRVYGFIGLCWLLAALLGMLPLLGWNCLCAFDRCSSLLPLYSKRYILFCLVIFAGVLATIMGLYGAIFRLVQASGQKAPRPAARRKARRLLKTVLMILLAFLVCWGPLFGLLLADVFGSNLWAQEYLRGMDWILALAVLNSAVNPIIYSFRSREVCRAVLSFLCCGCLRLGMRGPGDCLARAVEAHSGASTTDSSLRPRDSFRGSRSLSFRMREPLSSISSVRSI
Source text: as §1, §2, §4

[4] = biological target: T2, human S1P3 receptor; test: [32P]S1P binding assay, HEK293T membranes; parameters: expressed in transfected cells; host or cells: HEK293T, transient transfection; membranes; conditions: for Ki: read-out: pKi S1P3 (converted)
Description: (§6) [^32P]-S1P was prepared by incubating sphingosine and [γ-^32P]ATP with cell lysate from HEK293T cells transiently transfected with human sphingosine kinase type 2 DNA. The 200 μl reaction contained 0.025 mM sphingosine, 1 mCi [γ-^32P]ATP (7000 Ci/mmol) and kinase buffer (in mM: Mg(C2H3O2)2 (in 50 mM Tris, pH 7.5)/10, NaF/10, and semicarbizide/2). The reaction was initiated by the addition of 20 μg of cell lysate and incubated at 37° C. for at least 30 minutes. […] The organic layer was isolated and the extraction procedure repeated two additional times with the remaining aqueous fraction. The combined organic fractions were dried under a stream of nitrogen gas and resuspended in aqueous 0.1% fatty acid free BSA.
(§7) Bound ligand was separated from free ligand by rapid filtration and analyzed in a liquid scintillation counter.
as §4

[5] = biological target: T1, human S1P1 receptor; test: [32P]S1P binding assay, HEK293T membranes; parameters: expressed in transfected cells; host or cells: HEK293T, transient transfection; membranes; conditions: read-out: pKi S1P1 (converted)
Description: as §6, §7, §4

[6] = biological target: T2, human S1P3 receptor; test: [γ-35S]GTP binding assay, HEK293T membranes (agonism and Schild antagonism); type: biochemical; parameters: expressed in transfected cells; host or cells: HEK293T, transient transfection; membranes; key to Schild analysis flag on pKb S1P3: *: Based on Schild analysis, the antagonism observed was not competitive; conditions: for EC50: -log molar concentration giving 50% of maximal [γ-35S]GTP binding, ± S.E.M., read-out: pEC50 S1P3 (converted); for Kb: read-out: pKb S1P3 (converted); for Agonist efficacy class S1P3: relative to S1P Emax
Source text: as §1, §2, §3, §4

[7] = biological target: T1, human S1P1 receptor; test: Cell migration assay, T24 cells transfected stably with human S1P1 receptor; type: cell-based; parameters: expressed in transfected cells; conditions: 50 nM antagonist
Description: as §5
Cell migration assays are performed using modified Boyden chambers (tissue culture-treated, 24-mm diameter, 10-μm thickness, 8-μm pores, Transwell®; Costar Corp., Cambridge, Mass.) containing polycarbonate membranes that are coated on the underside with 0.1% gelatin. The underside of the polycarbonate membranes is rinsed once with migration media (DMEM/F12 without Phenol Red and 0.1% fatty acid free BSA) and then immersed in the lower chamber containing two milliliters of migration media. T24 cells transfected stably with human S1P1 receptor DNA were grown in DMEM/F12 media containing charcoal/dextran stripped FBS and 10 μg/ml puromycin to 100% confluence in 150×2.5 mm tissue culture plates and serum starved at least 12 hours. Serum-starved cells were removed from culture dishes with 10× Trypsin-EDTA (Hanks' balanced salt solution containing 5 mM EDTA and 25 mM HEPES, pH 7.2, and 0.1% trypsin; Invitrogen, San Diego, Calif.), suspended in migration buffer and collected by centrifugation at 130×g for 5 minutes. The supernatant fluid was removed by aspiration and cell pellet resuspended in migration media (10^6 cells/ml). […] The non-migrating cells in the upper chamber were removed by aspiration and the migratory cells attached to the bottom surface of the membrane were isolated by incubation in 10× Trypsin-EDTA for 1 min at room temperature and gently tapping the plate to dislodge cells from the membrane. The mass of migratory cells per membrane was evaluated by combining 100 μl of cell suspension with an equal volume of CyQuant dye solution (3.0 ml of 2× lysis buffer and 15 μl CyQuant dye), and the resulting fluorescence quantified using the FlexStation™ fluorimeter (Molecular Devices, Menlo Park, Calif.). Each determination represents the average of two individual migration chambers. […] The monolayer was washed three times with phosphate buffered saline and processed immediately for the cell migration assay, as described above.

[8] = biological target: T4, human S1P5 receptor (Homo sapiens, UniProt Q9H228); test: [γ-35S]GTP binding assay, HEK293T membranes; type: biochemical; conditions: for EC50: -log molar concentration giving 50% of maximal [γ-35S]GTP binding, ± S.E.M., read-out: pEC50 S1P5 (converted); for Agonist efficacy class S1P5: relative to S1P Emax
T4 construct: expressed in transfected cells; host or cells: HEK293T, transient transfection; membranes
T4 sequence (Q9H228 whole entry): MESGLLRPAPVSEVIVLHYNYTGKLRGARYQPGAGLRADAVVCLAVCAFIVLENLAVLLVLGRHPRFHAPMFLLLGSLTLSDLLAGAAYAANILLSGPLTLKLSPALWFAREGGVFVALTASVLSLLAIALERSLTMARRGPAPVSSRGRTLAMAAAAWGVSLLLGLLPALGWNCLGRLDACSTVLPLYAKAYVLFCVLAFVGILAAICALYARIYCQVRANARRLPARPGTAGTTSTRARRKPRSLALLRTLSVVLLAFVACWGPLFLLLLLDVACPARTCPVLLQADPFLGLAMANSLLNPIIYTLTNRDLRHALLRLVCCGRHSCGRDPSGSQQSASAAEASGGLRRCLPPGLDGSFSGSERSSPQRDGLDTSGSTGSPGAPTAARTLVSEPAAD
Source text: as §1, §2, §4

[9] = biological target: T5, S1P2 receptor (Homo sapiens, UniProt O95136); test: [γ-35S]GTP binding assay, HEK293T membranes; type: biochemical; conditions: for EC50: -log molar concentration giving 50% of maximal [γ-35S]GTP binding, ± S.E.M., read-out: pEC50 S1P2 (converted)
T5 construct: expressed in transfected cells; host or cells: HEK293T, transient transfection; membranes
T5 sequence (O95136 whole entry): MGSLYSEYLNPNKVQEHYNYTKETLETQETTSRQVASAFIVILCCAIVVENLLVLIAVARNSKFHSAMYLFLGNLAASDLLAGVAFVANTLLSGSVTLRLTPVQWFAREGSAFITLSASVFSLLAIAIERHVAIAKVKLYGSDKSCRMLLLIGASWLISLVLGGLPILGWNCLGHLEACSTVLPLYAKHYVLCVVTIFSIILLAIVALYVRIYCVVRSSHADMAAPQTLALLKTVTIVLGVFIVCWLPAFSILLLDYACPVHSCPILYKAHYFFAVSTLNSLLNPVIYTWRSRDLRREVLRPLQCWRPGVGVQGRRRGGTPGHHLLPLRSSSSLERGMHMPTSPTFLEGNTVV
Source text: as §1, §2, §4

[10] = system: S1P receptors; test: Antagonist properties (potency, S1P receptor type selectivity) compared with VPC23019
[11] = Metabolic stability in biologic systems (mouse); type: in vivo; conditions: in a mouse

SMILES | EC50 [1] [nM] | EC50 [3] [nM] | Ki [4] [nM] | Ki [5] [nM] | Kb [1] [nM] | Agonist efficacy class S1P1 [1] | Blockade of VPC22277 (10 nM)-induced migration [7] | EC50 [8] [nM] | Agonist efficacy class S1P5 [8] | EC50 [9] [nM] | Kb [6] [nM] | Agonist efficacy class S1P3 [6] | Agonist activity at the S1P1 receptor [1] | further results
CCCCCCCCCCCCC/C=C/[C@@H](O)[C@@H](N)COP(=O)(O)O [Compound S1P, Sphingosine 1-phosphate, reference compound] | 4.07 | 155 | 7.59 | 1.1 |  |  |  |  |  |  |  |  |  | Calcium mobilization by compound alone [2]: dose-dependent calcium mobilization was observed; EC50 [6]: 2.24 nM
CCCCCCc1cccc(NC(=O)[C@H](N)COP(=O)(O)O)c1 [VPC23031] |  | 1100 |  | 61.7 | 135 | na (no agonist activity (<10% of S1P Emax)) | Blockade | 135 | (wpa) (weak partial agonist activity (10-50% of S1P Emax)) | > 10000 | 10500 | na (no agonist activity (<10% of S1P Emax)) |  | Schild analysis flag on pKb S1P3 [6]: *
CCCCCCCCCCc1cccc(NC(=O)[C@H](N)COP(=O)(O)O)c1 [VPC23069] | 81.3 | 851 |  |  |  |  |  | > 10000 |  | > 10000 |  | (wpa) (weak partial agonist activity (10-50% of S1P Emax)) | agonists (or partial agonists) | EC50 [6]: 1910 nM
CCCCCCCCCc1cccc(NC(=O)[C@H](N)COP(=O)(O)O)c1 [VPC23079] | 676 | 1170 |  |  |  |  |  |  | na (no agonist activity (<10% of S1P Emax)) | > 10000 |  | na (no agonist activity (<10% of S1P Emax)) | agonists (or partial agonists) | 
CCCCCCCCc1ccccc1NC(=O)[C@H](N)COP(=O)(O)O [VPC23089] |  | 851 | 1580 | 891 | 490 | na (no agonist activity (<10% of S1P Emax)) | Blockade | > 10000 |  | > 10000 | 437 | na (no agonist activity (<10% of S1P Emax)) |  | Schild analysis flag on pKb S1P3 [6]: *
CCCCCCCCc1cccc(NC(=O)[C@@H](N)COP(=O)(O)O)c1 [VPC25027] | 2.24 |  |  |  |  | (pa) (partial agonist activity (50-85% of S1P Emax)) |  |  |  |  |  | na (no agonist activity (<10% of S1P Emax)) | agonists (or partial agonists) | Agonist efficacy class S1P2 ([9]; relative to S1P Emax): na (no agonist activity (<10% of S1P Emax))
CCCCCCCc1cccc(NC(=O)[C@H](N)COP(=O)(O)O)c1 [VPC25239] |  | 166 | 97.7 | 13.5 | 562 | na (no agonist activity (<10% of S1P Emax)) | Blockade | 11.5 | (pa) (partial agonist activity (50-85% of S1P Emax)) | > 10000 | 1410 | na (no agonist activity (<10% of S1P Emax)) |  | Schild analysis flag on pKb S1P1 [1]: *; Potency at the S1P3 receptor relative to lead compound VPC23019 [4]: one log order more potent
CCCCCCCCc1cccc(NC(=O)[C@H](N)CCP(=O)(O)O)c1 [VPC44116] |  |  |  |  |  |  |  |  |  |  |  |  |  | Antagonist properties (potency, S1P receptor type selectivity) versus VPC23019 [10]: indistinguishable from VPC23019; Metabolic stability in biologic systems [11]: at least 18 hours
